Measured values reported in ChEMBL document CHEMBL6103624, “Design, Synthesis, and Biological Evaluation of Marchantin C-NO Donor Hybrids for Overcoming Pgp-Mediated Drug Resistance by Targeting Lysosome” (J Med Chem, 2025).
The source made the active and inactive calls. No cut-off for these calls is given here.

Experiments:
NCI/ADR-RES [1] = assay: Inhibition of colony formation in human MCF7ADR cells assessed as reduction in colony growth at 40 nM incubated for 12 days in presence of hemoglobin by crystal violet staining based assay; format: functional, cell-based; conditions: time 12.0 day
[2] = biological target: T1, ATP-dependent translocase ABCB1 (Homo sapiens, UniProt P08183); assay: Inhibition of P-gp-mediated rhodamine-123 efflux in human MCF-7/ADR cells assessed as increase in Rh123 accumulation incubated for 4 hrs by flow cytometry analysis; format: cell-based; conditions: at 10 to 50 nM, dose 10-50 nM
NCI/ADR-RES [3] = assay: Induction of cell cycle arrest in human MCF7ADR cells assessed as accumulation of cells at G2/M phase at 30 nM incubated for 24 hrs by flow cytometry analysis (reference value: 11.2%); format: functional
A549/TR [4] = assay: Upregulation of P-gp expression in human A549/Taxol cells at 1 to 4 uM incubated for 24 hrs by Western blot analysis; format: functional, cell-based; conditions: dose 1-4 µM
PC-3 = assay: Antiproliferative activity against human PC-3 cells assessed as inhibition of cell growth incubated for 48 hrs by MTT assay; format: functional, cell-based; conditions: PC-3, 48 h
A549 [5] = assay: Upregulation of P-gp expression in human A549 cells at 1 to 4 uM incubated for 24 hrs by Western blot analysis; format: functional, cell-based; conditions: dose 1-4 µM
NCI/ADR-RES [6] = assay: Induction of ROS production in human MCF-7/ADR cells in presence of NAC; format: functional, cell-based
NCI/ADR-RES [7] = assay: Upregulation of Caspase-3 expression in human MCF7ADR cells at 25 to 50 nM incubated for 24 hrs by Western blot analysis; format: functional, cell-based; conditions: dose 25-50 nM
NCI/ADR-RES [8] = assay: Induction of apoptosis in human MCF7ADR cells incubated for 24 hrs by Annexin V-FITC/PI staining based flow cytometry analysis; format: functional, cell-based; conditions: dose 25-50 nM
[9] = Cytotoxicity against human BEAS-2B cells assessed as inhibition of cell growth incubated for 48 hrs by MTT assay; format: toxicity, cell-based
[10] = Toxicity in BALB/c mouse xenografted with human MCF7ADR cells assessed as lung damage at 1.25 to 5 mg/kg, ip measured for 21 days by H and E staining based analysis; format: organism-based; conditions: in vivo, 504 h, dose 1.25-5 mg/kg, time 21 day
[11] = Cytotoxicity against human MCF-10A cells assessed as inhibition of cell growth incubated for 48 hrs by MTT assay; format: toxicity, cell-based
NCI/ADR-RES [12] = assay: Induction of NO release in human MCF7ADR cells at 100 uM by Griess reagent assay; format: functional, cell-based; conditions: time <= 10.0 hrs
NCI/ADR-RES [13] = assay: Induction of ROS production in human MCF-7/ADR cells in presence of elacridar; format: functional, cell-based
[14] = Toxicity in BALB/c mouse xenografted with human MCF7ADR cells assessed as liver damage at 1.25 to 5 mg/kg, ip measured for 21 days by H and E staining based analysis; format: organism-based; conditions: in vivo, 504 h, dose 1.25-5 mg/kg, time 21 day
NCI/ADR-RES [15] = assay: Antitumor activity against human MCF7ADR cells xenografted in BALB/c mouse at 1.25 to 5 mg/kg, ip measured for 21 days; format: functional, organism-based; conditions: dose 1.25-5 mg/kg, time 21.0 day
NCI/ADR-RES [16] = assay: Antitumor activity against human MCF7ADR cells xenografted in BALB/c mouse at 1.25 mg/kg, ip measured for 21 days; format: functional, organism-based; conditions: time 21.0 day
A549/TR [17] = assay: Antiproliferative activity against human A549/Taxol cells assessed as inhibition of cell growth incubated for 48 hrs by MTT assay; format: functional, cell-based
NCI/ADR-RES [18] = assay: Upregulation of P-gp expression in human MCF-7/ADR cells at 25 to 100 nM incubated for 24 hrs by Western blot analysis; format: functional, cell-based; conditions: dose 25-100 nM
HepG2 = assay: Antiproliferative activity against human HepG2 cells assessed as inhibition of cell growth incubated for 48 hrs by MTT assay; format: functional, cell-based; conditions: HepG2, 48 h
NCI/ADR-RES [19] = assay: Upregulation of Bax expression in human MCF7ADR cells incubated for 24 hrs by Western blot analysis; format: functional, cell-based; conditions: dose 25-50 nM
[20] = Drug localization in lysosome of human MCF-7/ADR cells assessed as emission of yellow fluorescence incubated for 1 hr by DAPI staining based laser scanning confocal microscopic analysis; format: ADME, subcellular
NCI/ADR-RES [21] = assay: Inhibition of colony formation in human MCF7ADR cells assessed as reduction in colony growth at 40 to 50 nM incubated for 12 days by crystal violet staining based assay; format: functional, cell-based; conditions: dose 40-50 nM, time 12.0 day
[22] = Selectivity index, ratio of IC50 for antiproliferative activity against human MCF7 cells assessed as inhibition of cell growth to IC50 for antiproliferative activity against human MCF7ADR cells assessed as inhibition of cell growth; format: functional
NCI/ADR-RES [23] = assay: Upregulation of m-CTSD expression in human MCF7ADR cells at 50 to 100 nM incubated for 24 hrs by Western blot analysis; format: functional, cell-based; conditions: dose 50-100 nM
NCI/ADR-RES [24] = assay: Antitumor activity against human MCF7ADR cells xenografted in BALB/c mouse assessed as inhibition of tumor volume at 5 mg/kg, ip measured for 21 days; format: functional; conditions: 504 h, time 21 day
[25] = Toxicity in BALB/c mouse xenografted with human MCF7ADR cells assessed as change in body weight at 1.25 to 5 mg/kg, ip measured for 21 days; format: organism-based; conditions: in vivo, 504 h, dose 1.25-5 mg/kg, time 21 day
NCI/ADR-RES [26] = assay: Downregulation of Bcl-2 expression in human MCF7ADR cells incubated for 24 hrs by Western blot analysis; format: functional, cell-based; conditions: dose 25-50 nM
NCI/ADR-RES [27] = assay: Induction of apoptosis in human MCF7ADR cells assessed as increase in PARP1 cleavage at 25 to 50 nM incubated for 24 hrs by Western blot analysis; format: functional, cell-based; conditions: dose 25-50 nM
NCI/ADR-RES [28] = assay: Antitumor activity against human MCF7ADR cells xenografted in ip dosed BALB/c mouse assessed as decrease in ki67 expression measured for 21 days; format: functional, organism-based; conditions: dose 1.25-5 mg/kg, time 21.0 day
[29] = Toxicity in BALB/c mouse xenografted with human MCF7ADR cells assessed as kidney damage at 1.25 to 5 mg/kg, ip measured for 21 days by H and E staining based analysis; format: organism-based; conditions: in vivo, 504 h, dose 1.25-5 mg/kg, time 21 day
MCF7 [30] = assay: Antiproliferative activity against human MCF7 cells assessed as inhibition of cell growth incubated for 48 hrs by MTT assay; format: functional, cell-based; conditions: MCF7, 48 h
NCI/ADR-RES [31] = assay: Induction of apoptosis in human MCF7ADR cells at 25 to 50 nM incubated for 24 hrs by Annexin V-FITC/PI staining based flow cytometry analysis; format: functional; conditions: dose 25-50 nM
NCI/ADR-RES [32] = assay: Induction of NO release in human MCF7ADR cells by DAF-FM DA probe based analysis; format: functional, cell-based; conditions: dose 50-100 nM
Lysosomal membrane = assay: Induction of lysosomal membrane permeabilization in human MCF7ADR cells assessed as increase fluorescence intensity incubated for 6 hrs by LysoTracker red probe based laser scanning confocal microscopic analysis; format: subcellular; conditions: dose 50-100 nM
NCI/ADR-RES [33] = assay: Induction of cell cycle arrest in human MCF7ADR cells assessed as accumulation of cells at G2/M phase at 40 nM incubated for 24 hrs by flow cytometry analysis (reference value: 11.2%); format: functional
NCI/ADR-RES [34] = assay: Induction of cell cycle arrest in human MCF7ADR cells assessed as accumulation of cells at G2/M phase at 20 nM incubated for 24 hrs by flow cytometry analysis (reference value: 11.2%); format: functional
NCI/ADR-RES [35] = assay: Induction of NO release in human MCF7ADR cells at 100 uM measured for 5 hrs by Griess reagent assay; format: functional, cell-based
[36] = Induction of NO release in lysosome of human MCF-7/ADR cells assessed as increase in green fluorescence intensity at 100 nM by Lyso-NO probe based laser scanning confocal microscopic analysis; format: subcellular; conditions: 0.1 µM, time 1-3 hrs
A549 [37] = assay: Antiproliferative activity against human A549 cells assessed as inhibition of cell growth incubated for 48 hrs by MTT assay; format: functional, cell-based; conditions: A549, 48 h
MCF7 [38] = assay: Upregulation of P-gp expression in human MCF7 cells at 25 to 100 nM incubated for 24 hrs by Western blot analysis; format: functional, cell-based; conditions: dose 25-100 nM
NCI/ADR-RES [39] = assay: Antiproliferative activity against human MCF7ADR cells assessed as inhibition of cell growth incubated for 48 hrs by MTT assay; format: functional, cell-based
[40] = biological target: T1, ATP-dependent translocase ABCB1; assay: Inhibition of P-gp-mediated rhodamine-123 efflux in human MCF7 cells assessed as increase in Rh123 accumulation incubated for 4 hrs by flow cytometry analysis; format: cell-based; conditions: mcf7, 4 h, at 10 to 50 nM, dose 10-50 nM
[41] = Toxicity in BALB/c mouse xenografted with human MCF7ADR cells assessed as heart damage at 1.25 to 5 mg/kg, ip measured for 21 days by H and E staining based analysis; format: organism-based; conditions: in vivo, 504 h, dose 1.25-5 mg/kg, time 21 day
[42] = Induction of NO release in lysosome of human A549/Taxol cells assessed as increase in green fluorescence intensity at 100 nM by Lyso-NO probe based laser scanning confocal microscopic analysis; format: subcellular; conditions: 0.1 µM, time 1-3 hrs
[43] = Selectivity index, ratio of IC50 for antiproliferative activity against human A549 cells assessed as inhibition of cell growth to IC50 for antiproliferative activity against human A549/Taxol cells assessed as inhibition of cell growth; format: functional
[44] = Toxicity in BALB/c mouse xenografted with human MCF7ADR cells assessed as spleen damage at 1.25 to 5 mg/kg, ip measured for 21 days by H and E staining based analysis; format: organism-based; conditions: in vivo, 504 h, dose 1.25-5 mg/kg, time 21 day

T1 sequence (P08183 whole entry): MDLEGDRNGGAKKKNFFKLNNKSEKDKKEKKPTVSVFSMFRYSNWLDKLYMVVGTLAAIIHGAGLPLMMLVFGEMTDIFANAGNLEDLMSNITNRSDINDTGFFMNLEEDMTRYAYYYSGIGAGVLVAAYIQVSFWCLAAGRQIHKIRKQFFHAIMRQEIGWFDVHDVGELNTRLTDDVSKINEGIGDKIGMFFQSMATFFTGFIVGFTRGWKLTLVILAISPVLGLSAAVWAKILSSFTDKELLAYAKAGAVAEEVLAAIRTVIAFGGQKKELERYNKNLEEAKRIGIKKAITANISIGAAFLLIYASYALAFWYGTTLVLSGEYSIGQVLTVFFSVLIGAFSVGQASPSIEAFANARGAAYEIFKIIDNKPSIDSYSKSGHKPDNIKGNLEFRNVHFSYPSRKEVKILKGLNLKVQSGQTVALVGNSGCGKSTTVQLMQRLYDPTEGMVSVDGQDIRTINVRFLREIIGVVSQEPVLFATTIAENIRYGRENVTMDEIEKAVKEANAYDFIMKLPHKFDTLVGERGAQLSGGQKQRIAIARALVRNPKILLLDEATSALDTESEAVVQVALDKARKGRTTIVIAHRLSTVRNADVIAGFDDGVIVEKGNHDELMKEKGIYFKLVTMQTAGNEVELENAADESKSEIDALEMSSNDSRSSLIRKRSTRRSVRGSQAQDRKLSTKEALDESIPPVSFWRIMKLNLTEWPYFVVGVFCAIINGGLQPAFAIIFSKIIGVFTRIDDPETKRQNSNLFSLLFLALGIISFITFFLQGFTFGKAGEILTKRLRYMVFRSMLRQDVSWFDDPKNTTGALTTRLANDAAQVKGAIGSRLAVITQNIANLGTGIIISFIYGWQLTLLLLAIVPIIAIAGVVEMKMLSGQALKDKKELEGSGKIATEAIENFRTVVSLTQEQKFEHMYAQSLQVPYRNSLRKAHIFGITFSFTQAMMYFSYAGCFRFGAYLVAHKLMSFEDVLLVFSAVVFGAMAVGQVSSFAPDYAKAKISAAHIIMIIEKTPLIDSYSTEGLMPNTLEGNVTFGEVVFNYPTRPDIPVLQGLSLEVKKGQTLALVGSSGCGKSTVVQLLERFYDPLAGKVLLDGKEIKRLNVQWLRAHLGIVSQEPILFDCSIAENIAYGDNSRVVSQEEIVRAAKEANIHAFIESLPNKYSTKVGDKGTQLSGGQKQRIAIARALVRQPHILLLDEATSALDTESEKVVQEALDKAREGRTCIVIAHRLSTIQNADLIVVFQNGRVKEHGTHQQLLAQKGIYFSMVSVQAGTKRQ

O=S(=O)(c1ccccc1)c1c(OCCCOc2cccc3c2Oc2cccc(c2)CCc2ccc(O)c(c2)Oc2ccc(cc2)CC3)no[n+]1[O-]
inhibition (NCI/ADR-RES [1]): Active | inhibition (INH) [2]: Dose-dependent-effect | Activity (NCI/ADR-RES [3]): 20.3% | Activity (A549/TR [4]): Active | IC50 (PC-3): 3.36 µM | Activity (A549 [5]): Active | Activity (NCI/ADR-RES [6]): Active | Activity (NCI/ADR-RES [7]): Active | Activity (NCI/ADR-RES [8]): Dose-dependent-effect | IC50 at 48 h [9]: 14.8 µM | Activity [10]: Non-toxic | IC50 at 48 h [11]: 14.3 µM | Activity (NCI/ADR-RES [12]): Time-dependent-effect | Activity (NCI/ADR-RES [13]): Active | Activity [14]: Non-toxic | Activity (NCI/ADR-RES [15]): Active; Displayed Strong Antitumor Activity Than Ptx | Activity (NCI/ADR-RES [16]): Active | IC50 (A549/TR [17]): 1.43 µM | Activity (NCI/ADR-RES [18]): Active | IC50 (HepG2): 6.57 µM | Activity (NCI/ADR-RES [19]): Dose-dependent-effect | Drug uptake [20]: Active | inhibition (NCI/ADR-RES [21]): Active | Ratio IC50 [22]: 883 | Activity (NCI/ADR-RES [23]): Active | inhibition in vivo at 5 mg/kg (NCI/ADR-RES [24]): 62.7% | Activity [25]: Non-toxic | Activity (NCI/ADR-RES [26]): Dose-dependent-effect | Activity (NCI/ADR-RES [27]): Active | Activity (NCI/ADR-RES [28]): Dose-dependent-effect | Activity [29]: Non-toxic | IC50 (MCF7 [30]): 21.2 µM | Activity (NCI/ADR-RES [31]): 8.6% | Activity (NCI/ADR-RES [32]): Dose-dependent-effect | Activity (Lysosomal membrane): Dose-dependent-effect | Activity (NCI/ADR-RES [33]): 25.3% | Activity (NCI/ADR-RES [34]): 18.1% | Activity (NCI/ADR-RES [35]): Active | Activity [36]: Time-dependent-effect | IC50 (A549 [37]): 23.8 µM | Activity (MCF7 [38]): inactive | IC50 (NCI/ADR-RES [39]): 0.024 µM | inhibition (INH) [40]: Dose-dependent-effect | Activity [41]: Non-toxic | Activity [42]: Time-dependent-effect | Ratio IC50 [43]: 17 | Activity [44]: Non-toxic
